Where two headings read alike, the source gives them in different places. Bridge positions count the residues as written; N and C are the ends. Peptide text beside a SMILES is read from it.

Experiment [1] has as its system anti-mouse CTLA-4 antibody (clone 9D9). As to the kind of experiment: Peptide antibody dissociation ELISA (CTLA-4 antibody). It is filed as binding. Particulars: for pH responsiveness: FIG. 11A-11C legend, unoptimized peptide candidates. As to the method: (§1) To begin, peptides were immobilized on neutravidin coated and blocked wells. […] After binding at 4 degrees the plates were washed extensively as before. Next the peptides were incubated with either neutral or acidic pH buffers for approximately 30 minutes and then washed again. The specifically peptide bound antibodies were detected by either anti-mouse Fc or anti-mouse kappa chain HRP conjugated antibodies using standard TMB-based chromogenic ELISA procedures. The effects of pH upon affinity were determined by standard EC50 analysis of each of the distinct pH dilution series binding curves and comparison of their respective EC50 values.
(An ELISA detects its analyte on a solid surface through an enzyme-linked reagent.)

A further experiment deals with PD-L1 antibody. As to the kind of experiment: Peptide antibody dissociation ELISA (PD-L1 antibody). The class given is binding. To be noted: for pH 5.4: pH 7.2 EC 50 ratio: pH 5.4 vs pH 7.2; for pH 6.0: pH 7.2 EC 50 ratio: pH 6.0 vs pH 7.2. As to the method: as §1
Where [2] appears, read: pH 5.4, read-out: EC50 [M] pH 5.4.
Setting [3] is: pH 6.0, read-out: EC50 [M] pH 6.0.
[4] abbreviates: pH 7.2, read-out: EC50 [M] pH 7.2.

Turning to `CSCC[C@@H]1NC(=O)[C@H](CC(=O)O)NC(=O)[C@H](C(C)C)NC(=O)[C@@H](NC(=O)[C@H](Cc2c[nH]cn2)NC(=O)CNC(=O)CN)CSSC[C@@H](C(=O)N[C@@H](CCC(N)=O)C(=O)O)NC(=O)[C@H]([C@@H](C)O)NC(=O)[C@H](CCC(N)=O)NC(=O)[C@H](CCC(N)=O)NC(=O)[C@H](Cc2ccc(O)cc2)NC(=O)[C@H](Cc2ccccc2)NC(=O)[C@H](CC(=O)O)NC(=O)[C@H](C(C)C)NC1=O` [Peptide 23] (H-GGHCVDMVDFYQQTCQ-OH; disulfide 4-15), in experiment [1] (pH 7.2), the “EC50 [M] pH 7.2” value is on record as “Inactive”. Also, the EC50 – broadly, the midpoint of the concentration-response curve – is 3.9e-09 M with PD-L1 antibody (setting [2]), 1.3e-09 M with PD-L1 antibody (setting [3]) and 3e-10 M in the experiment with PD-L1 antibody (setting [4]). Besides, in the experiment with PD-L1 antibody, the “pH 5.4: pH 7.2 EC 50 ratio” value is recorded as 12.9. Further, the “pH 6.0: pH 7.2 EC 50 ratio” value in the experiment with PD-L1 antibody worked out at 4.3.
Consider GGCILPGQHESQAIAC [Peptide 6], for which the pH responsiveness entry in experiment [1] is listed as “significant pH responsiveness”.
Turning to `CC(C)C[C@H](NC(=O)[C@H](CCC(=O)O)NC(=O)[C@H](CCC(=O)O)NC(=O)[C@H](Cc1ccc(O)cc1)NC(=O)[C@H](Cc1ccccc1)NC(=O)[C@H](Cc1ccc(O)cc1)NC(=O)[C@H](CC(C)C)NC(=O)[C@@H]1CCCN1C(=O)[C@H](CO)NC(=O)[C@@H](NC(=O)[C@@H](N)CCC(N)=O)C(C)C)C(=O)N[C@@H](C)C(=O)O` [Peptide 27], in the experiment with PD-L1 antibody (setting [3]), the EC50 is 9e-10 M.
Regarding GGCFEEHEQLVFQTHC [Peptide 5], in experiment [1], the pH responsiveness result is reported as “significant pH responsiveness”.
`CC[C@H](C)[C@@H]1NC(=O)[C@H](CC(=O)O)NC(=O)[C@H](C(C)C)NC(=O)[C@H](CCC(N)=O)NC(=O)[C@@H]2CCCN2C(=O)[C@H](CCC(=O)O)NC(=O)[C@H](Cc2ccc(O)cc2)NC(=O)[C@H](Cc2ccccc2)NC(=O)[C@H]([C@@H](C)O)NC(=O)[C@H](CO)NC(=O)[C@@H](NC(=O)[C@H](CC(C)C)NC(=O)CNC(=O)CN)CSSC[C@@H](C(=O)N[C@@H](Cc2ccc(O)cc2)C(=O)O)NC1=O` [Peptide 29] (H-GGLCSTFYEPQVDICY-OH; disulfide 4-15): the EC50 with PD-L1 antibody (setting [2]) turned out to be 1.5e-09 M; in the experiment on PD-L1 antibody (setting [3]), 4.9e-10 M; in the experiment on PD-L1 antibody (setting [4]) it was 2.3e-10 M. In addition, in the experiment on PD-L1 antibody, the “pH 5.4: pH 7.2 EC 50 ratio” value was 6.5. For the same compound, the “pH 6.0: pH 7.2 EC 50 ratio” value in the experiment on PD-L1 antibody worked out at 2.1.
In the same order, the values of `CC[C@H](C)[C@H](NC(=O)[C@H](Cc1c[nH]cn1)NC(=O)[C@H](Cc1ccc(O)cc1)NC(=O)[C@@H](NC(=O)[C@H](CO)NC(=O)[C@@H]1CCCN1C(=O)[C@H](Cc1ccc(O)cc1)NC(=O)[C@H](Cc1ccccc1)NC(=O)[C@H](CC(C)C)NC(=O)[C@@H](N)CCC(N)=O)[C@@H](C)O)C(=O)N[C@H](C(=O)N[C@@H](CC(=O)O)C(=O)O)[C@@H](C)CC` [Peptide 20] (H-QLFYPSTYHIID-OH) are 8.4e-10 M, 2.1e-10 M, 1.3e-10 M, 6.7 and 1.7.
As to `CC(C)C[C@@H]1NC(=O)CNC(=O)[C@H](CO)NC(=O)[C@H](CCCCN)NC(=O)[C@H](CC(N)=O)NC(=O)[C@H](Cc2c[nH]cn2)NC(=O)[C@@H](NC(=O)CNC(=O)CN)CSSC[C@@H](C(=O)O)NC(=O)[C@H](Cc2ccc(O)cc2)NC(=O)[C@H](Cc2c[nH]cn2)NC(=O)[C@H](Cc2ccc(O)cc2)NC(=O)[C@H](Cc2ccccc2)NC1=O` [Peptide 24] (H-GGCHNKSGLFYHYC-OH; disulfide 3-14), the concentration giving a half-maximal response (EC50) in the experiment with PD-L1 antibody (setting [2]) is 1.3e-09 M; with PD-L1 antibody (setting [3]), 5.6e-10 M; in the experiment on PD-L1 antibody (setting [4]), 2e-10 M. The “pH 5.4: pH 7.2 EC 50 ratio” value in the experiment with PD-L1 antibody stood at 6.6. In addition, the “pH 6.0: pH 7.2 EC 50 ratio” value with PD-L1 antibody is recorded as 2.8.
Regarding “GGADCLLHDWDSACQI [Peptide 10, control in the PD-L1 antibody test]”, the pH responsiveness entry in experiment [1] is reported as “significant pH responsiveness”. In addition, the “EC50 [M] pH 7.2” value in the experiment on PD-L1 antibody (pH 7.2) is recorded as “Inactive”.
Regarding `CSCC[C@H](NC(=O)CNC(=O)CN)C(=O)N[C@H]1CSSC[C@@H](C(=O)N[C@@H](CCC(N)=O)C(=O)O)NC(=O)[C@H](Cc2c[nH]c3ccccc23)NC(=O)[C@H](CC(N)=O)NC(=O)[C@H](CC(C)C)NC(=O)[C@H](CC(N)=O)NC(=O)[C@H](CO)NC(=O)[C@H](Cc2ccc(O)cc2)NC(=O)[C@H](Cc2ccccc2)NC(=O)[C@H](CC(C)C)NC(=O)[C@H](CCC(=O)O)NC(=O)[C@H](Cc2c[nH]cn2)NC1=O` [Peptide 22] (H-GGMCHELFYSNLNWCQ-OH; disulfide 4-15), the values for the EC50 in the experiment on PD-L1 antibody (setting [2]), in the experiment with PD-L1 antibody (setting [3]) and in the experiment on PD-L1 antibody (setting [4]) were 3.5e-10 M, 7e-11 M and 4.5e-11 M, respectively. The “pH 5.4: pH 7.2 EC 50 ratio” value in the experiment with PD-L1 antibody stood at 7.8. In the experiment on PD-L1 antibody, the “pH 6.0: pH 7.2 EC 50 ratio” value turned out to be 1.5.
For the compound `CC(C)[C@@H]1NC(=O)[C@@H](NC(=O)CNC(=O)CN)CSSC[C@@H](C(=O)O)NC(=O)[C@H](CC(=O)O)NC(=O)[C@@H]2CCCN2C(=O)[C@H](CCCNC(=N)N)NC(=O)[C@H](CCC(N)=O)NC(=O)[C@H](Cc2c[nH]cn2)NC(=O)[C@H](Cc2c[nH]cn2)NC(=O)[C@H](Cc2ccccc2)NC(=O)[C@H](Cc2ccccc2)NC(=O)[C@H](Cc2c[nH]cn2)NC1=O` [Peptide 31], the figures for the EC50 in the experiment with PD-L1 antibody (setting [2]) and in the experiment with PD-L1 antibody (setting [3]) were 1.5e-09 M and 3.6e-10 M, respectively.

The values are drawn from patent publication US20180339043A1, “MODIFIED ANTIBODIES” (Janux Therapeutics, Inc., priority 2017, published 2018).
